Data from patent US20230372319A1, “Combination Treatment of Cancer” (Ares Trading S.A., priority 2020, published 2023).
pIC50: −log10 of the molar value.

Key:
RENCA cells = settings: BALB/c mice, day 12; bintrafusp alfa 492 μg i.v. days 0, 2, 5; niraparib 50 mg/kg p.o. days 0-11
Experimental: BALB/c mice were inoculated orthotopically with RENCA cells (0.5×10^5) in the left kidney (day −6). […] Mice were euthanized at day 12 and both kidneys were weighed. The weight of the tumor bearing left kidney was divided by the weight of the bilateral right kidney to calculate the kidney mass ratio. Individual kidney mass ratios were plotted, with a line representing the median.
The RENCA cells were obtained from ATCC (ATCC® CRL-2947™) and were cultured in RPMI-1640 with 10% heat inactivated fetal bovine serum and 0.1 mM non-essential amino acids. […] Cells were cultured under aseptic conditions and incubated at 37° C. with 5% CO2. […]
(§1) Tumor sizes were measured twice per week with digital calipers and recorded automatically using WinWedge software. Tumor volumes were calculated with the following formula: tumor volume (mm^3)=tumor length×width×height×0.5236. Tumor growth inhibition (TGI) was calculated with the following formula: TGI (%)=[1−(Ti−T0)/(Vi−V0)]×100, where Ti is the average tumor volume (mm^3) of a treatment group on a given day, T0 is the average tumor volume of the treatment group on the first day of treatment, Vi is the average tumor volume of the vehicle control group on the same day as Ti, and V0 is the average tumor volume of the vehicle control group on the first day of treatment. […]

AT-3 cells = assay: Orthotopic AT-3 breast cancer model; type: in vivo, C57BL/6 mice; settings: for median survival: isotype control 13 days; for responders (mice with tumor volumes<1 σ of the control group mean): day 13 post treatment start, n=10 mice/group
Experimental: C57BL/6 mice were inoculated orthotopically with AT3 cells (0.5×10^6) in the mammary fat pad (day −11). […] Tumor volumes were measured twice weekly. In the lower plot, individual tumor volumes at day 13 are presented with a line representing the median tumor volume and error bars showing the 95% confidence intervals. […] P-values were calculated by two-way ANOVA with Tukey's post-test.
AT-3 cells were obtained from Sigma and were cultured in DMEM supplemented with 10% FBS, 1 mM sodium pyruvate, 2 mM non-essential amino acids, 15 mM HEPES, and 1×β-mercaptoethanol. […] Cells were cultured under aseptic conditions and incubated at 37° C. with 5% CO2. Cells were passaged before in vivo implantation and adherent cells were harvested with TrypLE Express.
For the efficacy study, 0.5×10^6 AT-3 cells were inoculated orthotopically into the right lower mammary at pad of C57BL/6 mice on day −11. Treatment was initiated on day 0 when average tumor volume reached ˜50 mm^3. Mice were sacrificed when tumor volumes reached ˜1000 mm^3.
Mice were randomized into treatment groups according to tumor volume on the day of treatment initiation (day 0).
The isotype control is a mutated version of anti-PD-L1, which completely lacks PD-L1 binding. In tumor-bearing mice, bintrafusp alfa (492 μg) or isotype control (400 μg) were administered with an intravenous (i.v.) injection in 0.2 mL PBS.
Radiation therapy (RT) was delivered at 8 Grey (Gy) on days 0-3.
Tumor sizes were measured twice per week with digital calipers and recorded automatically using WinWedge software. Tumor volumes were calculated with the following formula: tumor volume (mm^3)=tumor length×width×height×0.5236. Tumor growth inhibition (TGI) was calculated with the following formula: TGI (%)=[1−(Ti−T0)/(Vi−V0)]×100, where Ti is the average tumor volume (mm^3) of a treatment group on a given day, T0 is the average tumor volume of the treatment group on the first day of treatment, Vi is the average tumor volume of the vehicle control group on the same day as Ti, and V0 is the average tumor volume of the vehicle control group on the first day of treatment. To compare the percentage survival between different treatment groups, Kaplan-Meier survival curves were generated. Body weight was measured twice weekly and mice were sacrificed when their tumor volume exceeded 2,500 mm^3 for s.c. and intramuscular tumors and 1,000 mm^3 for mammary orthotopic tumors.

B16F10 cells = assay: Subcutaneous B16F10 melanoma model; type: in vivo; settings: C57BL/6 mice, s.c.; bintrafusp alfa 492 μg i.v. days 0, 3, 6; niraparib 50 mg/kg p.o. QDx14; days 15/19; vs isotype control or monotherapies as stated
Experimental: C57BLJ6 mice were inoculated subcutaneously with B16F10 cells (0.5×10^6) in the flank. […] Tumor volumes were measured twice weekly and presented as mean ±SEM or as individual tumor volumes. P-values were calculated by two-way ANOVA with Tukey's or Sidak's post-test.
B16F10 cells were obtained from (ATCC) and were cultured in Dulbecco's Modified Eagle's medium (DMEM) supplemented with 10% fetal bovine serum (FBS). […] Cells were cultured under aseptic conditions and incubated at 37° C. with 5% CO2. Cells were passaged before in vivo implantation and adherent cells were harvested with TrypLE Express. […]
as §1

[1] = tested on: MDA-MB-231 human breast cancer; assay: MDA-MB-231 breast cancer model; type: in vivo; settings: NOD/SCID mice, s.c.; bintrafusp alfa 492 μg i.v. BiWx4; niraparib 50 mg/kg p.o. QDx28; day 41; vs isotype control or monotherapies as stated
Experimental: NOD/SCID mice were subcutaneously inoculated with MDA-MB-231 cells (10×10^6) in the right flank (day −19). […] Tumor volumes were measured twice weekly and presented as mean ±SEM or as individual tumor volumes. P-values were calculated by two-way ANOVA with Tukey's post-test.
MDA-MB-231 (BRCA-wt) cells were obtained from ATCC (ATCC® HTB-26™) and were cultured in Leibovitz's L-15 supplemented with 15% heat inactivated fetal bovine serum, 100 U/ml penicillin and 100 μg/ml streptomycin at 37° C. in an atmosphere of 5% CO2 in air. […] Cells were cultured under aseptic conditions and incubated at 37° C. with 5% CO2. Cells were passaged before in vivo implantation and adherent cells were harvested with TrypLE Express. […]
as §1

[2] = tested on: MDA-MB-436 human breast cancer cell line; assay: MDA-MB-436 breast cancer model; type: in vivo; settings: NOD/SCID mice, bintrafusp alfa 492 μg i.v. BiWx4, niraparib 35 mg/kg p.o. QDx28
Experimental: NOD/SCID mice were inoculated with MDA-MB-436 cells (10×10^6) in the right flank (day −19). […] Tumor volumes were measured twice weekly and presented as mean ±SEM or as individual tumor volumes. P-values were calculated by two-way ANOVA with Tukey's or Sidak's post-test.
MDA-MB-436 (BRCA1-mut) cells were obtained from American Type Culture Collection (ATCC® HTB-130™) and were cultured in RPMI-1640 supplemented with 10% heat inactivated fetal bovine serum, 100 U/ml penicillin and 100 μg/ml streptomycin at 37° C. in an atmosphere of 5% CO2 in air. […] Cells were cultured under aseptic conditions and incubated at 37° C. with 5% CO2. […]
as §1

[3] = tested on: PARP activity in various cell lines; settings: cited from earlier work

bintrafusp alfa: anti-PD-L1:TGFβRII fusion protein; human IgG1 antibody against PD-L1 fused to extracellular domain of human TGF-β receptor II; SEQ ID NO: 7 and 8
relative kidney tumor burden: ratio of mass of tumor bearing kidney to bilateral normal kidney (median) (RENCA cells): 3.74
tumor growth relative to isotype control or bintrafusp alfa monotherapy, in words (AT-3 cells; C57BL/6 mice, day 13, bintrafusp alfa 492 μg i.v. days 0, 3, 6, niraparib 50 mg/kg p.o. days 0-13): did not significantly reduce tumor growth
median survival (AT-3 cells; C57BL/6 mice): 13 days
responders (mice with tumor volumes<1 σ of the control group mean) (AT-3 cells): 1/10
tumor growth (tumor volume), in words (B16F10 cells): neither bintrafusp alfa nor niraparib monotherapies significantly reduced tumor growth
tumor growth (tumor volume), in words [1]: significantly reduced tumor growth

NC(=O)c1cccc2cn(-c3ccc([C@@H]4CCCNC4)cc3)nc12 [niraparib, (3S)-3-[4-{7-(aminocarbonyl)-2H-indazol-2-yl}phenyl]piperidine]
median time to disease progression after stopping treatment [2]: 42.5 days
tumor growth (tumor volume), in words ([2]; vs isotype control or monotherapy as stated, days 41/69): significantly inhibited tumor growth
median survival (AT-3 cells; C57BL/6 mice): 13 days
responders (mice with tumor volumes<1 σ of the control group mean) (AT-3 cells): 5/10
tumor growth (tumor volume), in words (B16F10 cells): neither bintrafusp alfa nor niraparib monotherapies significantly reduced tumor growth
inhibitory concentration at 90% of control (1090) of PARP activity in cells ([3]; PARP activity stimulated by DNA damage caused by hydrogen peroxide): ~50 nM
pIC50 ([3]; read-out: IC50 of PARP activity in cells, PARP activity stimulated by DNA damage caused by hydrogen peroxide): ~8.40
tumor growth (tumor volume), in words [1]: significantly reduced tumor growth
